# How the values were obtained:
# JAK1 [1] = target: T1, JAK1 (Homo sapiens, UniProt P23458); experiment: Cellular JAK1 activity assay: IL-6-stimulated STAT3 phosphorylation in TF-1 cells; format: cell-based; design: endogenous in cells; host or cells: TF-1 cells (ATCC); details: IL-6 (30 ng/mL), pSTAT3, read-out: IC50 Cell JAK1
# Procedure: In TF-1 cells, IL-6 stimulation leads to phosphorylation of STAT3 through JAK1, while EPO stimulants phosphorylation of STAT5 via JAK2.
# TF-1 cells were obtained from American Type Culture Collection (ATCC). TF-1 cells were starved overnight (cell density was 100,000 cells/well at plating) in OptiMEM medium without phenol red containing 0.5% fetal bovine serum (FBS), 0.1 mM non-essential amino acids (NEAA), 1 mM sodium pyruvate at 37° C. The compound was serially diluted in DMSO, added to TF-1 cells and incubated at 37° C. for 20 minutes. The final concentration of DMSO was 0.2%. Then, human recombinant cytokine IL-6 (30 ng/mL) or EPO (10 U/mL) was added to the wells containing TF-1 cells. After the cell plate was incubated for 30 minutes, cells were lysed, and the phosphorylation of STAT3 (IL-6) or STAT5 (EPO) in the cell lysate (pSTAT3/total STAT3 Elisa Kit: CST #7300C/CST #7305C; pSTAT5 and total STAT5 Elisa Kit: Abcam #ab205715) was measured. The IC50 value was determined as the concentration of the compound required to inhibit STAT phosphorylation by 50% relative to the measured DMSO control.
# JAK1 [2] = target: T1, JAK1; experiment: In vitro JAK1 kinase activity assay (HTRF kinEASE TK); format: biochemical; design: purchased Thermo Fisher; details: 1.1 μM ATP, 60 minutes, room temperature; read-out: IC50 JAK1 (enzyme activity assay)
# Method in brief: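 HTRF TK assay: 0.5 ng/μl JAK1, 1 μM biotinylated TK peptide, 1.1 μM ATP with MgCl2, MnCl2, DTT, 60 min at room temperature; compounds 10 μM to 0.04 nM, 1% DMSO. Overnight detection with SA-XL665 and TK-antibody; 665/620 ratio to % inhibition, IC50 by 4-parameter fit.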
# JAK3 protein = target: T2, JAK3 protein (Homo sapiens, UniProt P52333); experiment: In vitro JAK3 kinase activity assay (HTRF kinEASE TK); format: biochemical; details: 0.75 μM ATP, 25 minutes, room temperature; read-out: IC50 JAK3 (enzyme activity assay)
# T2 construct: purchased Carna Biosciences
# T2 sequence (P52333 1-1124): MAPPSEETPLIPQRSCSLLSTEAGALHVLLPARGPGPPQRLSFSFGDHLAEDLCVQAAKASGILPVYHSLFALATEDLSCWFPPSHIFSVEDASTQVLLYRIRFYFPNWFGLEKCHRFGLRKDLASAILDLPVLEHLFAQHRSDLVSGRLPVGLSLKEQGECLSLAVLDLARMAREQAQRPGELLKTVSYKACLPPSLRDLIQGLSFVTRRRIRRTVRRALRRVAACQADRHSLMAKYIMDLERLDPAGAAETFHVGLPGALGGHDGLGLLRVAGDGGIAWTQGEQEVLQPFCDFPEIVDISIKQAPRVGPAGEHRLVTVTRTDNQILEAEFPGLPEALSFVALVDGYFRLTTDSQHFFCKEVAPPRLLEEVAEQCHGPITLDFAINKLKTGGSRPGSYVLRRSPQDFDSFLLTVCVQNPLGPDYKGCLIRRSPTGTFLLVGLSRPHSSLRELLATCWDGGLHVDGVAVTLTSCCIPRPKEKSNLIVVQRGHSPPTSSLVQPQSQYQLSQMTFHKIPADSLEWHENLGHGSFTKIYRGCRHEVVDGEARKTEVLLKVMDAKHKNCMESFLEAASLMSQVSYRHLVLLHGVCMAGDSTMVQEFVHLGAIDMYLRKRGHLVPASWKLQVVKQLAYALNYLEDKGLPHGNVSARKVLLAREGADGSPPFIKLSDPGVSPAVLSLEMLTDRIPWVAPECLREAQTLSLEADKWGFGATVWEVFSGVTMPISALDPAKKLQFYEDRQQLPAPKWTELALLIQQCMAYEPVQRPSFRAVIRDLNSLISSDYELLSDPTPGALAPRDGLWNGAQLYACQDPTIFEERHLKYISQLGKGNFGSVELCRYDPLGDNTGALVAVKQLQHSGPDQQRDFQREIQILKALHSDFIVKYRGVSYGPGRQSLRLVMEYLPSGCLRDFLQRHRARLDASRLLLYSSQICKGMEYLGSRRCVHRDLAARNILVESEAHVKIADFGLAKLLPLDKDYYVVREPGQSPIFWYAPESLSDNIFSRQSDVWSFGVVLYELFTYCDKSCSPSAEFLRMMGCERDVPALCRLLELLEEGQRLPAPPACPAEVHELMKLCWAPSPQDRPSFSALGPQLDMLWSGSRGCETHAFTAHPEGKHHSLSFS
# Method in brief: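 Recombinant JAK3 ([…]) with 1 μM biotinylated TK substrate peptide and 0.75 μM ATP, 5 mM MgCl2, 1 mM DTT, 1% DMSO; 25 min at room temperature. HTRF read-out (SA-XL665, TK-antibody, overnight) as 665/620 ratio; compounds 10 μM–0.04 nM, 4-fold, duplicates; IC50 from 4-parameter fit.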
# T1 sequence (P23458 whole entry): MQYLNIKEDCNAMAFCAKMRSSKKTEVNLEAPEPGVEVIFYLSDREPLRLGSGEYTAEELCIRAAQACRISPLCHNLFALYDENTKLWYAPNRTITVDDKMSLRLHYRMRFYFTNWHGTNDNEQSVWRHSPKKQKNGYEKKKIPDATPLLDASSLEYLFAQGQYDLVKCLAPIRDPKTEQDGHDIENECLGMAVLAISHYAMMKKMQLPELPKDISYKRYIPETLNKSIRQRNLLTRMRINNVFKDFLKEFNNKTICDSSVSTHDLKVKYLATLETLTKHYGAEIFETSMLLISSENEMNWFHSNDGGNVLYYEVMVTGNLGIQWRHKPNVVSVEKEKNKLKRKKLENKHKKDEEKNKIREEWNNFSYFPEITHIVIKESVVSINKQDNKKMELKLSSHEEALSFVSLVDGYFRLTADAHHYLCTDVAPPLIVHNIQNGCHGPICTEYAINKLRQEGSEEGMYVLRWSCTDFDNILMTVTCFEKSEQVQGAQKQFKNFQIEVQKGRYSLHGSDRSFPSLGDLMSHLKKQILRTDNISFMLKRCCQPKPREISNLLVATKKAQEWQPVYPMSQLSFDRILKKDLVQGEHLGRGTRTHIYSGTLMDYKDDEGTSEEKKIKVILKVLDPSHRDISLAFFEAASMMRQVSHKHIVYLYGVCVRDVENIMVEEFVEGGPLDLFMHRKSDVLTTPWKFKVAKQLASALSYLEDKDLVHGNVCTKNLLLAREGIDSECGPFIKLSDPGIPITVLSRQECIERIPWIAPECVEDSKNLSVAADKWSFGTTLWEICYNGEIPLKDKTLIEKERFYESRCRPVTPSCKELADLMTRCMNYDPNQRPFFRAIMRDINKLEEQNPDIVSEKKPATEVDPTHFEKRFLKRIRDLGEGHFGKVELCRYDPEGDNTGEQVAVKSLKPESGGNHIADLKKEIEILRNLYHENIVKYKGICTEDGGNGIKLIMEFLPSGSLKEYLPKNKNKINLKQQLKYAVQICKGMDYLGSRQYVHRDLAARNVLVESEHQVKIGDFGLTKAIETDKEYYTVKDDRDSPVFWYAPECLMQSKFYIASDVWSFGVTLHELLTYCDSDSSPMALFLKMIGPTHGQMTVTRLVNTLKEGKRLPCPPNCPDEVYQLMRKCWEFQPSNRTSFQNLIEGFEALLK
smiles,measurement,setting,value
"CC[C@H](C(=O)Nc1nccc2c(-c3nc(Nc4cn(C)nc4OC)ncc3C)c[nH]c12)N1CCN(C)CC1 [Example 4, (R)—N-(3-(2-((3-Methoxy-1-methyl-1H-pyrazol-4-yl)amino)-5-methylpyrimidin-4-yl)-1H-pyrrolo[2,3-c]pyridin-7-yl)-2-(4-methylpiperazin-1-yl)butanamide]",IC50,JAK1 [1],< 100 nM
same,IC50,JAK1 [2],< 5 nM
same,IC50,JAK3 protein,< 500 nM

# Reference: patent US12234232B2, “Aromatic heterocyclic compound with kinase inhibitory activity” (SHANGHAI ENNOVABIO PHARMACEUTICALS CO., LTD., priority 2018, dated 2025)
